Assay results taken from PMC12903857.

Key:
pERK [1] = test: Lumit immunoassay for pERK with 14-3-3 C38N mutant; type: cell-based; conditions: HEK293T
pERK [2] = test: Lumit immunoassay for pERK levels in HEK293T cells; type: cell-based; conditions: pERK modulation
14-3-3σ/C-RAF259 [3] = target: T1, 14-3-3σ/C-RAF259 (Homo sapiens, UniProt P31947); test: Fluorescence anisotropy (FA) compound titration; type: binding; conditions: 10 nM C-RAF259-FAM 10-mer, 5 μΜ 14-3-3σ, overnight; read-out: Compound titrations EC50 value C-RAF259
Method: (§1) In analogy to our previous work, two orthogonal assays were used for screening (Figure S2). […] Dose responses of compounds were performed in the absence and presence of the C-RAF259 phospho-peptide to distinguish between neutral binders and cooperative molecular glues. The experiment was performed as a time course, with measurements every 8 h, after an 1 h incubation. Additionally, the compounds were tested in a fluorescence anisotropy (FA) assay in the presence of the 5-carboxyfluorescein-(FAM)-labeled C-RAF259 peptide. […] The full dose–response data for all compounds are available in the SI (Tables S2–S5, Figures S5–S8, Figures S15–S18, Figures S25–S32, Figures S37–S39). The dose–response data from both assays were also visually compared in the form of bar graphs. […] For FA experiments, the EC50 values from the overnight measurement were calculated and plotted as bar graphs showing the […] log EC50 value (pEC50). Compounds acting as MGs were expected to show increases in both types of bar graphs.
(§2) transferred in the assay plates.
(§3) The reacton mixtures were incubated
(§4) dispensed in the assay plates.
(§5) incubaton at room temperature .

[4] = Solubility in the assay conditions; type: physicochemical; conditions: MS assay conditions
14-3-3σ/C-RAF = 14-3-3σ/C-RAF (Homo sapiens, UniProt P31947); test: cell-based
14-3-3σ/C-RAF259 [5] = target: T1, 14-3-3σ/C-RAF259; test: Intact mass spectrometry assay with C-RAF259 phospho-peptide; type: binding; design: full-length for mass spectrometry and fluorescence anisotropy assays; made in house; host or cells: E. coli Rosetta 2(DE3)pLysS (14-3-3σ); peptides from Elim Biopharmaceuticals; conditions: 1 μM compound, 100 nM 14-3-3σ, 18 µM peptide
Method: as §1, §2, §3, §4, §5

14-3-3σ [6] = target: T2, 14-3-3σ (Homo sapiens, UniProt P31947); test: Intact mass spectrometry assay, apo (no peptide); type: binding; design: full-length for mass spectrometry and fluorescence anisotropy assays; made in house; host or cells: E. coli Rosetta 2(DE3)pLysS, pPROEX HTb vector; conditions: 1 μM compound, 100 nM 14-3-3σ
T2 sequence (P31947 1-248): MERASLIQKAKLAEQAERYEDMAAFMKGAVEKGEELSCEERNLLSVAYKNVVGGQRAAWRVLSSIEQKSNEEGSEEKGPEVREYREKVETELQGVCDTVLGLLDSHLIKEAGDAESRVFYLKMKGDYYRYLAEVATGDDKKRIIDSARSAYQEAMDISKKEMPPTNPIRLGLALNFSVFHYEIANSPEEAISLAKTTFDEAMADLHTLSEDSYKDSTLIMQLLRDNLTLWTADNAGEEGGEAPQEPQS
Method: as §1, §2, §3, §4, §5

14-3-3σ/C-RAF259 [7] = target: T1, 14-3-3σ/C-RAF259; test: FA protein titration, C-RAF259 peptide; conditions: appKd DMSO / appKd compound
14-3-3σ [8] = target: T2, 14-3-3σ; test: FA, Kd of 15-mer RAF peptides
Method: Ea ch compound was measured in triplicates, i n two i ndependent experi ments. Fluorescence anisotropy measurements were performed directly and a€er overnight incubaton at room temperature.
Fluorescence anisotropy measurements were performed a€er overnight incubaton at room temperature .

N-RAS Q61L/C-RAF = conditions: HEK293T; 100% = DMSO mBU, 0% = N-RAS/C-RAF R89L
C-RAF/C-RAF = conditions: with N-RAS Q61L; 100% = DMSO mBU
[9] = test system: 80 peptides representing a diverse set of 14-3-3 clients; test: FA selectivity panel, single point; conditions: 10.5 μM compound, 100 nM client peptides, overnight; hit = change in anisotropy of more than 15 units
Method: concentraton (50 μM, maximum eﬀect) was used.
giving the anisotropy change (ΔAU ) .
sele tme: 0 ms, gain: optmal).

14-3-3σ/C-RAF, sequence (P04049 whole entry partner, one chain of several): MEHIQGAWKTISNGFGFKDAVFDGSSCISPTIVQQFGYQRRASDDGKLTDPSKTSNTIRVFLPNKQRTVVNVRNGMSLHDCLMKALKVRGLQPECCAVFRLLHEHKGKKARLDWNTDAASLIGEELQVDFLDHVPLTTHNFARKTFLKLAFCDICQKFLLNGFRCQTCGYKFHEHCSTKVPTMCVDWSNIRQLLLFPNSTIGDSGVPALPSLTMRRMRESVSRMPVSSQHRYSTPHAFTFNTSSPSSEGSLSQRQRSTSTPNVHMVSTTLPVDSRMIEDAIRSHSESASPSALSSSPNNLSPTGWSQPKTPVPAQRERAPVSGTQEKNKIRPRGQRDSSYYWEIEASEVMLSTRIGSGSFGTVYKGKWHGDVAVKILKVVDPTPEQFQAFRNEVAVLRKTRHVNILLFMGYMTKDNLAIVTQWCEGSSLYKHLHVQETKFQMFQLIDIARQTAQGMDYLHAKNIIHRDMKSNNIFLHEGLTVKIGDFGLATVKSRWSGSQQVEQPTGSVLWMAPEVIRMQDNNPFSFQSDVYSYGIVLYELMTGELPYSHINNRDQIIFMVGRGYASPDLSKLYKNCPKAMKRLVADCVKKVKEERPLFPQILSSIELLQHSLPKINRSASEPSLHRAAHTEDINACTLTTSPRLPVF

Row | SMILES | EC50 (14-3-3σ/C-RAF259 [3]) [nM] | % bound, C-RAF259 (11mer), 1h (14-3-3σ/C-RAF259 [5]) [%] | % bound, C-RAF259 (11mer), 8h (14-3-3σ/C-RAF259 [5]) [%] | % bound, C-RAF259 (11mer), 16h (14-3-3σ/C-RAF259 [5]) [%] | % bound, C-RAF259 (11mer), 24h (14-3-3σ/C-RAF259 [5]) [%] | % bound, APO, 1h (14-3-3σ [6]) [%] | % bound, APO, 8h (14-3-3σ [6]) [%] | % bound, APO, 16h (14-3-3σ [6]) [%] | % bound, APO, 24h (14-3-3σ [6]) [%] | Fold stabilization (100 µM compound), C-RAF259 (10mer) (14-3-3σ/C-RAF259 [7]) [fold] | other results
1 | CC(=O)Nc1cccc(-n2c(=O)n(C3CC3)c(=O)c3c(Nc4ccc(I)cc4F)n(C)c(=O)c(C)c32)c1 [Trametinib, reference compound] | – | – | – | – | – | – | – | – | – | – | effect on pERK with the C38N mutant (pERK [1]): same effect; time taken to modulate the pathway (pERK [2]): 3 h
2 | O=C(CCl)N1CC2(C1)CN(S(=O)(=O)c1ccc(I)cc1)CCO2 [Compound 79] | 2000 ± 1000 | – | – | – | – | – | – | – | – | – | solubility in the assay conditions [4]: poor solubility
3 | O=C(CCl)NCC1CCN(S(=O)(=O)c2ccc(Cl)c(F)c2)CC1 [Compound 29] | 1000 ± 500 | – | – | – | – | – | – | – | – | – | EC50 (14-3-3σ/C-RAF): 140 nM
4 | O=C(CCl)N1CCC2(CCN(S(=O)(=O)c3ccc(Br)c(F)c3)C2)C1 (centres unmarked) [Compound 86] | 1000 ± 1000 | – | – | – | – | – | – | – | – | – | EC50 (14-3-3σ/C-RAF): 300 nM
5 | CC[C@H](C)[C@H](NC(=O)[C@H](CCCNC(=N)N)NC(=O)[C@H](CCC(N)=O)NC(=O)[C@H](CC(C)C)NC(=O)c1ccc2c(c1)C(=O)OC21c2ccc(O)cc2Oc2cc(O)ccc21)C(=O)N[C@@H](CCCNC(=N)N)C(=O)N[C@@H](CO)C(=O)N[C@H](C(=O)N[C@@H](COP(=O)(O)O)C(=O)N[C@H](C(=O)N1CCC[C@H]1C(=O)N[C@@H](CC(N)=O)C(=O)N[C@H](C(=O)N[C@@H](Cc1c[nH]cn1)C(=O)N[C@@H](CCSC)C(=O)N[C@H](C(N)=O)C(C)C)C(C)C)[C@@H](C)O)[C@@H](C)O [A-RAF 15-mer] | – | – | – | – | – | – | – | – | – | – | Kd (14-3-3σ [8]): 8000 to 10000 nM
6 | CNc1ncc2cc(-c3cc(NC(=O)NCCC(C)(C)C)c(F)cc3C)c(C)nc2n1 [LY3009120, reference compound] | – | – | – | – | – | – | – | – | – | – | time taken to modulate the pathway (pERK [2]): 3 h
7 | O=C(CCl)NCC1CCN(S(=O)(=O)c2ccc(Br)cc2)CC1 [Compound 22] | – | – | – | – | – | – | – | – | – | – | clients emerged as hits [9]: six
8 | CSCC[C@H](NC(=O)[C@H](Cc1c[nH]cn1)NC(=O)[C@@H](NC(=O)[C@H](CC(N)=O)NC(=O)[C@@H]1CCCN1C(=O)[C@@H](NC(=O)[C@H](COP(=O)(O)O)NC(=O)[C@@H](NC(=O)[C@H](CO)NC(=O)[C@H](CCCNC(=N)N)NC(=O)[C@H](CCC(N)=O)NC(=O)[C@H](CCCNC(=N)N)NC(=O)[C@H](CCC(N)=O)NC(=O)[C@H](CO)NC(=O)c1ccc2c(c1)C(=O)OC21c2ccc(O)cc2Oc2cc(O)ccc21)[C@@H](C)O)[C@@H](C)O)C(C)C)C(=O)N[C@H](C(N)=O)C(C)C [C-RAF 15-mer, 5-FAM-SQRQRST{pS}TPNVHMV-CONH2] | – | – | – | – | – | – | – | – | – | – | Kd (14-3-3σ [8]): 8000 to 10000 nM

Continued, in another order:

Row | EC50 (14-3-3σ/C-RAF259 [3]) [nM] | % bound, C-RAF259 (11mer), 1h (14-3-3σ/C-RAF259 [5]) [%] | % bound, C-RAF259 (11mer), 8h (14-3-3σ/C-RAF259 [5]) [%] | % bound, C-RAF259 (11mer), 16h (14-3-3σ/C-RAF259 [5]) [%] | % bound, C-RAF259 (11mer), 24h (14-3-3σ/C-RAF259 [5]) [%] | % bound, APO, 1h (14-3-3σ [6]) [%] | % bound, APO, 8h (14-3-3σ [6]) [%] | % bound, APO, 16h (14-3-3σ [6]) [%] | % bound, APO, 24h (14-3-3σ [6]) [%] | Fold stabilization (100 µM compound), C-RAF259 (10mer) (14-3-3σ/C-RAF259 [7]) [fold] | SMILES | other results
9 | 9000 ± 1000 | 7.7 | 18.5 | 31.8 | 50.3 | 0 | 0 | 0.9 | 0.9 | 13 | COc1ccc(S(=O)(=O)N2CCC(CNC(=O)CCl)CC2)cc1F [Compound 33] | –
10 | 17000 ± 3000 | 39.3 | 64.6 | 78.1 | 96.7 | 0 | 1.9 | 3.8 | 3.8 | 7 | O=C(CCl)NCC1CCN(S(=O)(=O)c2cc(F)c(Br)cc2F)CC1 [Compound 39] | –
11 | 12000 ± 1000 | 16.5 | 45.2 | 71.2 | 80.5 | 4.7 | 17.3 | 28 | 51.8 | 6 | O=C(CCl)N1CC2CC1CN2S(=O)(=O)c1ccc(Br)c(F)c1 (centres unmarked) [Compound 58] | –
12 | 2000 ± 1000 | – | – | – | – | – | – | – | – | – | O=C(CCl)N1CC2(C1)CN(S(=O)(=O)c1ccc(Br)cc1)CCO2 [Compound 78] | reduction of the N-RAS Q61L/C-RAF interaction (N-RAS Q61L/C-RAF): no clear trend; solubility in the assay conditions [4]: poor solubility; decrease in C-RAF homodimer formation (C-RAF/C-RAF): ~20%; EC50 (14-3-3σ/C-RAF): 1200 nM
13 | 15000 ± 2000 | 27.5 | 53.6 | 79 | 80.8 | 9.9 | 27.2 | 47.2 | 65 | 2 | O=C(CCl)N1CC2(CC(NS(=O)(=O)c3ccc(Br)c(F)c3)C2)C1 [Compound 64] | –
14 | 12000 ± 2000 | 11 | 24.8 | 41.8 | 60.3 | 1 | 2.5 | 6.5 | 22.5 | 3 | O=C(CCl)NCC1CCN(S(=O)(=O)c2ccc(F)c(Cl)c2)CC1 [Compound 30] | –
15 | 2000 | – | – | – | – | – | – | – | – | – | O=C(CCl)N1CC2(C1)CN(S(=O)(=O)c1ccc(Br)c(F)c1)CCO2 [Compound 70] | reduction of the N-RAS Q61L/C-RAF interaction (N-RAS Q61L/C-RAF): no clear trend; decrease in C-RAF homodimer formation (C-RAF/C-RAF): ~20%
16 | 2000 ± 1000 | 35.9 | 60.5 | 78.9 | 93.9 | 0 | 0.5 | 1.5 | 4.7 | 13 | O=C(CCl)NCC1CCN(S(=O)(=O)c2cc(F)c(Br)c(F)c2)CC1 [Compound 40] | –
